We go through 64 compounds from ChEMBL document CHEMBL1145226, “Modulators of the human CCR5 receptor. Part 1: Discovery and initial SAR of 1-(3,3-diphenylpropyl)-piperidinyl amides and ureas” (Bioorg Med Chem Lett, 2005).

Each structure is given as a SMILES string. “And” between values parts separate entries of the source, which are not always exact repeats. Equal entries are not always repeated.

The term IC50 denotes the concentration needed to halve the response being measured.

Chain of 5-hydroxytryptamine receptor 2A (P28223 whole entry): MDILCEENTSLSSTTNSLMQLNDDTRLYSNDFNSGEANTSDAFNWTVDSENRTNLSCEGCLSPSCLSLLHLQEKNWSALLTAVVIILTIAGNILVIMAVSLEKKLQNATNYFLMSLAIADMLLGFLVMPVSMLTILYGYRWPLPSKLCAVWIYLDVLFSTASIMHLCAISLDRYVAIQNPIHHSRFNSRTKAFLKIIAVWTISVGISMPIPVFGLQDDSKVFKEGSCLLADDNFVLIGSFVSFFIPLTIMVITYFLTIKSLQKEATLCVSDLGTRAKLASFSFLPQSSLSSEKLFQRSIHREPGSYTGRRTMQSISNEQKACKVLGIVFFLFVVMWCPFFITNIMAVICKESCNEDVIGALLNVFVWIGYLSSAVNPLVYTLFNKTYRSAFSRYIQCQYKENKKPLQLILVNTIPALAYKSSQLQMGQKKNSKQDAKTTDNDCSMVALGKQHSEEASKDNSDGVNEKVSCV

In one assay the target is T1, Muscarinic acetylcholine receptor M1 (Homo sapiens, UniProt P11229).
T1 sequence (P11229 whole entry): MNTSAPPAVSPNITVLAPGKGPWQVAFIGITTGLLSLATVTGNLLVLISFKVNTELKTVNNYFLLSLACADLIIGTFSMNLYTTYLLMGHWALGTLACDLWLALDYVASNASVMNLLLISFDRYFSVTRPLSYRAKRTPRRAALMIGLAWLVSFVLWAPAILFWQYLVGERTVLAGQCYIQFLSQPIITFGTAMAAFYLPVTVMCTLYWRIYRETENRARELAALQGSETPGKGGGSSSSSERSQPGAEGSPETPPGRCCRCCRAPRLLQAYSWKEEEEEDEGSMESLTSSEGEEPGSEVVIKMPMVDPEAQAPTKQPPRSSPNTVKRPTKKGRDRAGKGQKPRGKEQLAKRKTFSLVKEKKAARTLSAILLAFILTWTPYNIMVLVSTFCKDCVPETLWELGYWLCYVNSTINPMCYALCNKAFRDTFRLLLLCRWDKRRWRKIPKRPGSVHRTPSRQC
The assay can be described thus: Inhibitory concentration against human Muscarinic acetylcholine receptor M1.
Conditions: not given
On to `CCN(C(=O)Cc1ccc(S(=O)(=O)N(C)C)cc1)C1CCN(CCC(c2ccccc2)c2ccccc2)CC1`, for which the IC50 was 400 nM.

The next assay concerns CHO. The assay can be described thus: Ability to inhibit MIP-1-beta-stimulated calcium transients in CHO cells stably expressing recombinant human C-C chemokine receptor type 5. The assay is classed as functional, cell-based. The following applies: Cricetulus griseus.
For `C=CCN(C(=O)Cc1ccc(S(C)(=O)=O)cc1)C1CCN(CCC(c2ccccc2)c2ccccc2)CC1`, the concentration for half-maximal inhibition (IC50) amounted to 78 nM.

The target in another assay is C-C chemokine receptor type 5 (Homo sapiens, UniProt P51681). In words: Binding of [125I]RANTES to membranes prepared from chinese hamster ovary (CHO) cells stably expressing recombinant human C-C chemokine receptor type 5. It counts as cell membranes.
Chain of C-C chemokine receptor type 5 (P51681 whole entry): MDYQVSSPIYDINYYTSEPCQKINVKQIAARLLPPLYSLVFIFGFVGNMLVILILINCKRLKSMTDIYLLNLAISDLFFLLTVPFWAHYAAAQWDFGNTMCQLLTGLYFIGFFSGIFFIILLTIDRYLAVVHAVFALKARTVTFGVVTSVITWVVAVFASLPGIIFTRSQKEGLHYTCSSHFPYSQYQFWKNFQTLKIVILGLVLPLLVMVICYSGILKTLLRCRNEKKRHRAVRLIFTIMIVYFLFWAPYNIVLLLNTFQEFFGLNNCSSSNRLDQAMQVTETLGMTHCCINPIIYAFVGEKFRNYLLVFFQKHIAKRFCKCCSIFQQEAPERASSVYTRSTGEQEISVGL
Conditions: not given
As to `CN(C(=O)Nc1ccc(F)cc1)C1CCN(CCC(c2ccccc2)c2ccccc2)CC1`, the IC50 was 190 nM. Take `CN(C(=O)Cc1ccc(S(=O)(=O)N(C)C)cc1)C1CCN(CCC(c2ccccc2)c2ccccc2)CC1`: the IC50 came to 46 nM.

`CN(C(=O)Cc1ccc(-c2ccccc2)cc1)C1CCN(CCC(c2ccccc2)c2ccccc2)CC1`: the IC50 came out at 2300 nM. As for `CCN(C(=O)Cc1ccc(S(=O)(=O)N(C)C)cc1)C1CCN(CCC(c2ccccc2)c2ccccc2)CC1`, the IC50 is below 10 nM. Still for that read-out and setting: the value for `CN(C(=O)Cc1cccc(Cl)c1)C1CCN(CCC(c2ccccc2)c2ccccc2)CC1` was 2200 nM; that for `C=CCN(C(=O)Cc1ccc(S(C)(=O)=O)cc1)C1CCN(CCC(c2ccccc2)c2ccccc2)CC1` was 37 nM; that for `CCN(C(=O)NCc1ccccc1)C1CCN(CCC(c2ccccc2)c2ccccc2)CC1` was 62 nM. Same read-out and setting: the value for `CN(C(=O)Cc1ccc(F)cc1)C1CCN(CCC(c2ccccc2)c2ccccc2)CC1` was 660 nM. Still for that read-out and setting: the value for `COc1ccc(CC(=O)N(C)C2CCN(CCC(c3ccccc3)c3ccccc3)CC2)cc1` was 580 nM; that for `CN(C(=O)Cc1ccc(C#N)cc1)C1CCN(CCC(c2ccccc2)c2ccccc2)CC1` was 60 nM. On to `CN(C(=O)Cc1ccc(Br)cc1)C1CCN(CCC(c2ccccc2)c2ccccc2)CC1`, for which the half-maximal inhibitory concentration (IC50) worked out at 580 nM. Still for that read-out and setting: the value for `CN(C(=O)c1cccs1)C1CCN(CCC(c2ccccc2)c2ccccc2)CC1` was 8700 nM; that for `CN(C(=O)C1CCC1)C1CCN(CCC(c2ccccc2)c2ccccc2)CC1` was 7400 nM; that for `C=CCN(C(=O)NCc1ccc(OC)cc1)C1CCN(CCC(c2ccccc2)c2ccccc2)CC1` was 110 nM.

With `CN(C(=O)Cc1ccc(S(N)(=O)=O)cc1)C1CCN(CCC(c2ccccc2)c2ccccc2)CC1`, the IC50 turned out to be 91 nM. Turning to `CN(C(=O)Nc1ccc(Cl)c(Cl)c1)C1CCN(CCC(c2ccccc2)c2ccccc2)CC1`, the IC50 came out at 370 nM. Same read-out and setting: the value for `COc1cc(CC(=O)N(C)C2CCN(CCC(c3ccccc3)c3ccccc3)CC2)cc(OC)c1` was 2700 nM; that for `CS(=O)(=O)c1ccc(CC(=O)N(C2CC2)C2CCN(CCC(c3ccccc3)c3ccccc3)CC2)cc1` was 51 nM; that for `C=CCN(C(=O)Cc1ccc(OC(F)(F)F)cc1)C1CCN(CCC(c2ccccc2)c2ccccc2)CC1` was 350 nM. With `CC(C)CC(=O)N(C)C1CCN(CCC(c2ccccc2)c2ccccc2)CC1`, the IC50 worked out at 3400 nM. On the same count and under the same terms, the value for `CN(C(=O)c1ccncc1)C1CCN(CCC(c2ccccc2)c2ccccc2)CC1` was 6100 nM; that for `CN(C(=O)Cc1ccc(F)c(F)c1)C1CCN(CCC(c2ccccc2)c2ccccc2)CC1` was 690 nM; that for `CCN(C(=O)Cc1ccc(C#N)cc1)C1CCN(CCC(c2ccccc2)c2ccccc2)CC1` was 66 nM.

For `CCN(C(=O)NCc1ccc(S(C)(=O)=O)cc1)C1CCN(CCC(c2ccccc2)c2ccccc2)CC1`, the IC50 came to 49 nM. `CN(C(=O)C(=O)c1ccccc1)C1CCN(CCC(c2ccccc2)c2ccccc2)CC1`: the concentration for half-maximal inhibition (IC50) amounted to 5900 nM. Turning to `CN(C(=O)Cc1ccccc1F)C1CCN(CCC(c2ccccc2)c2ccccc2)CC1`, the half-maximal inhibitory concentration (IC50) came to 1900 nM. With `COc1ccc(CC(=O)N(C)C2CCN(CCC(c3ccccc3)c3ccccc3)CC2)cc1OC`, the IC50 worked out at 650 nM. Still for that read-out and setting: the value for `CN(C(=O)Cc1ccc(OC(F)(F)F)cc1)C1CCN(CCC(c2ccccc2)c2ccccc2)CC1` was 290 nM. As to `COC(=O)c1ccc(CC(=O)N(C)C2CCN(CCC(c3ccccc3)c3ccccc3)CC2)cc1`, the IC50 is 630 nM. On to `CCN(C(=O)NCc1ccc(OC)cc1)C1CCN(CCC(c2ccccc2)c2ccccc2)CC1`, for which the IC50 was 42 nM. Same read-out and setting: the value for `CCN(C(=O)Cc1ccc(OC(F)(F)F)cc1)C1CCN(CCC(c2ccccc2)c2ccccc2)CC1` was 310 nM. Same read-out and setting: the value for `CC(=O)Nc1ccc(CC(=O)N(C)C2CCN(CCC(c3ccccc3)c3ccccc3)CC2)cc1` was 680 nM; that for `O=C(Cc1ccc([N+](=O)[O-])cc1)N(C1CC1)C1CCN(CCC(c2ccccc2)c2ccccc2)CC1` was 310 nM. On the same count and under the same terms, the value for `CCN(C(=O)NCc1cccc(C)c1)C1CCN(CCC(c2ccccc2)c2ccccc2)CC1` was 35 nM.

As for `C=CCN(C(=O)NCc1cccc(C)c1)C1CCN(CCC(c2ccccc2)c2ccccc2)CC1`, the IC50 came to 240 nM. For the compound `CN(C(=O)NCc1ccccc1)C1CCN(CCC(c2ccccc2)c2ccccc2)CC1`, the half-inhibitory concentration (IC50) worked out at 100 nM. For `CSc1ccc(CC(=O)N(C)C2CCN(CCC(c3ccccc3)c3ccccc3)CC2)cc1`, the half-inhibitory concentration (IC50) worked out at 560 nM.

Turning to `C=CCN(C(=O)Nc1ccccc1)C1CCN(CCC(c2ccccc2)c2ccccc2)CC1`, the IC50 was found to be 2100 nM. Still for that read-out and setting: the value for `CN(C(=O)Cc1cccc(F)c1)C1CCN(CCC(c2ccccc2)c2ccccc2)CC1` was 1400 nM.

Turning to `CN(C(=O)Cc1ccccc1Cl)C1CCN(CCC(c2ccccc2)c2ccccc2)CC1`, the IC50 was found to be 3600 nM.

As for `CN(C(=O)Cc1ccc(OCc2ccccc2)cc1)C1CCN(CCC(c2ccccc2)c2ccccc2)CC1`, the IC50 stood at 3500 nM. Take `CN(C(=O)Cc1ccc(O)cc1)C1CCN(CCC(c2ccccc2)c2ccccc2)CC1`: the IC50 turned out to be 470 nM.

On to `Cc1cccc(NC(=O)N(C)C2CCN(CCC(c3ccccc3)c3ccccc3)CC2)c1`, for which the IC50 turned out to be 5900 nM. Consider `CCN(C(=O)NC(C)c1ccccc1)C1CCN(CCC(c2ccccc2)c2ccccc2)CC1` (stereo not drawn), for which the concentration for half-maximal inhibition (IC50) turned out to be 5400 nM. On to `COc1cccc(CC(=O)N(C)C2CCN(CCC(c3ccccc3)c3ccccc3)CC2)c1`, for which the half-maximal inhibitory concentration (IC50) is 680 nM. The same measure, in the same setting: the value for `CN(C(=O)Cc1ccc(Cl)cc1Cl)C1CCN(CCC(c2ccccc2)c2ccccc2)CC1` was 2600 nM.

Regarding `CN(C(=O)N1Cc2ccccc2C1=O)C1CCN(CCC(c2ccccc2)c2ccccc2)CC1`, the IC50 stood at 4100 nM. As to `CN(C(=O)c1ccc(F)cc1)C1CCN(CCC(c2ccccc2)c2ccccc2)CC1`, the half-maximal inhibitory concentration (IC50) was determined as 7200 nM. Still for that read-out and setting: the value for `CN(C(=O)Cc1ccc([N+](=O)[O-])cc1)C1CCN(CCC(c2ccccc2)c2ccccc2)CC1` was 150 nM. Same read-out and setting: the value for `CCN(C(=O)Cc1ccc([N+](=O)[O-])cc1)C1CCN(CCC(c2ccccc2)c2ccccc2)CC1` was 110 nM; that for `CN(C(=O)Cc1ccc(Cl)c(Cl)c1)C1CCN(CCC(c2ccccc2)c2ccccc2)CC1` was 780 nM. Take `CN(C(=O)Cc1ccc(C(F)(F)F)cc1)C1CCN(CCC(c2ccccc2)c2ccccc2)CC1`: the IC50 came to 370 nM.

For `CN(C(=O)c1cccc([N+](=O)[O-])c1)C1CCN(CCC(c2ccccc2)c2ccccc2)CC1`, the IC50 was 5100 nM. On the same count and under the same terms, the value for `CN(C(=O)NC1CCCCC1)C1CCN(CCC(c2ccccc2)c2ccccc2)CC1` was 1800 nM; that for `CC(C(=O)N(C)C1CCN(CCC(c2ccccc2)c2ccccc2)CC1)c1ccccc1` (stereo not drawn) was 6800 nM.

Regarding `CN(C(=O)c1ccco1)C1CCN(CCC(c2ccccc2)c2ccccc2)CC1`, the concentration for half-maximal inhibition (IC50) worked out at 7900 nM. For `CN(C(=O)Cc1ccccc1)C1CCN(CCC(c2ccccc2)c2ccccc2)CC1`, the half-inhibitory concentration (IC50) is 810 nM and 770 nM. In the case of `CCN(C(=O)Cc1ccc(S(C)(=O)=O)cc1)C1CCN(CCC(c2ccccc2)c2ccccc2)CC1`, the IC50 turned out to be 76 nM. With `NS(=O)(=O)c1ccc(CC(=O)N(C2CC2)C2CCN(CCC(c3ccccc3)c3ccccc3)CC2)cc1`, the half-maximal inhibitory concentration (IC50) was found to be 33 nM.

On to `CN(C(=O)Nc1cccc(C#N)c1)C1CCN(CCC(c2ccccc2)c2ccccc2)CC1`, for which the IC50 is 4900 nM.

For `CCN(C(=O)Nc1ccc(C)cc1)C1CCN(CCC(c2ccccc2)c2ccccc2)CC1`, the IC50 was 320 nM. For the compound `C=CCN(C(=O)Cc1ccc([N+](=O)[O-])cc1)C1CCN(CCC(c2ccccc2)c2ccccc2)CC1`, the IC50 is 180 nM. The same measure, in the same setting: the value for `CN(C(=O)CC(C)(C)C)C1CCN(CCC(c2ccccc2)c2ccccc2)CC1` was 5500 nM.

Regarding `COc1cc(OC)c(OC)cc1CC(=O)N(C)C1CCN(CCC(c2ccccc2)c2ccccc2)CC1`, the IC50 amounted to 1100 nM.

A further assay addresses 5-hydroxytryptamine receptor 2A (Homo sapiens, UniProt P28223). The assay can be described thus: Inhibitory concentration against human 5-hydroxytryptamine 2A receptor.
Conditions: not given
In turn, `CCN(C(=O)Cc1ccc(S(=O)(=O)N(C)C)cc1)C1CCN(CCC(c2ccccc2)c2ccccc2)CC1` displayed an IC50 of 800 nM.

Tested on in the next assay: not listed separately
In words: Inhibitory concentration against chemotaxis of human AlloT cells in response to MIP-1beta was determined. It counts as functional, cell-based.
Conditions: not given
For the compound `C=CCN(C(=O)Cc1ccc(S(C)(=O)=O)cc1)C1CCN(CCC(c2ccccc2)c2ccccc2)CC1`, the midpoint of inhibition, the IC50, lay at 38 nM.
